Reference: US20230085307A1, “PYRIDAZINONE COMPOUND AND HERBICIDE” (NISSAN CHEMICAL CORPORATION, priority 2019, published 2023)

Key:
[1] = system: barnyard grass; experiment: Test Example 5: herbicidal effect by foliage application, plastic box (Table 20, symbol H); assay type: in vivo, barnyard grass (Echinochloa crus-galli); details: foliage application, 320 g/ha, three weeks after application
Method in brief: (§1)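 Plants were sown into sterilized diluvial soil under about 1.5 cm cover and kept in a greenhouse at 25° C. to 30° C. Fourteen days on, foliage received an even spray of the diluted emulsion. Herbicidal or crop effect was judged three weeks afterwards.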

[2] = system: Chinese sprangletop; experiment: Test Example 3: herbicidal effect by foliage application, Wagner pot (Table 18, symbol D); assay type: in vivo, chinese sprangletop (Leptochloa chinensis); details: 320 g/ha
Method in brief: (§2)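 Plants were sown in alluvial soil held under 0.1–0.5 cm standing water and grown 14 days in a greenhouse at 25–30 °C. An emulsifiable formulation, water-diluted to the set dose, was then sprayed onto the foliage, and effects were scored three weeks later using previously defined criteria.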

[3] = system: persian speedwell; experiment: Test Example 5: herbicidal effect by foliage application, plastic box (Table 20, symbol R); assay type: in vivo, Persian speedwell (Veronica persica); details: foliage application, 320 g/ha, three weeks after application
Method in brief: as §1

[4] = system: chickweed; experiment: Test Example 4: herbicidal effect by soil treatment (Table 19, symbol P); assay type: in vivo, common chickweed (Stellaria media); details: amount of applied herbicide 320 g/ha
Method in brief: (§3)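 Pre-emergence style soil spray: seeds under ~1.5 cm sterilized diluvial soil received a uniform coat of emulsion diluted to the predetermined herbicide amount. Greenhouse 25–30° C; readout at week three on previously defined criteria.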

[5] = system: false cleavers; experiment: Test Example 4: herbicidal effect by soil treatment (Table 19, symbol Q); assay type: in vivo, false cleavers (Galium spurium); details: amount of applied herbicide 320 g/ha
Method in brief: as §3

[6] = system: rice flat sedge; experiment: Test Example 3: herbicidal effect by foliage application, Wagner pot (Table 18, symbol E); assay type: in vivo, rice flat sedge (Cyperus iria); details: 320 g/ha
Method in brief: as §2

[7] = system: windgrass; experiment: Test Example 5: herbicidal effect by foliage application, plastic box (Table 20, symbol L); assay type: in vivo, windgrass (Apera spica-venti); details: foliage application, 320 g/ha, three weeks after application
Method in brief: as §1

[8] = system: southern crabgrass; experiment: Test Example 5: herbicidal effect by foliage application, plastic box (Table 20, symbol F); assay type: in vivo, southern crabgrass (Digitaria ciliaris); details: foliage application, 320 g/ha, three weeks after application
Method in brief: as §1

[9] = system: wild oat; experiment: Test Example 4: herbicidal effect by soil treatment (Table 19, symbol I); assay type: in vivo, wild oat (Avena fatua); details: amount of applied herbicide 320 g/ha
Method in brief: as §3

[10] = system: barnyard grass; experiment: Test Example 4: herbicidal effect by soil treatment (Table 19, symbol H); assay type: in vivo, barnyard grass (Echinochloa crus-galli); details: amount of applied herbicide 320 g/ha
Method in brief: as §3

[11] = system: redroot pigweed; experiment: Test Example 4: herbicidal effect by soil treatment (Table 19, symbol N); assay type: in vivo, redroot pigweed (Amaranthus retroflexus); details: amount of applied herbicide 320 g/ha
Method in brief: as §3

[12] = system: chickweed; experiment: Test Example 5: herbicidal effect by foliage application, plastic box (Table 20, symbol P); assay type: in vivo, common chickweed (Stellaria media); details: foliage application, 320 g/ha, three weeks after application
Method in brief: as §1

[13] = system: lambsquarters; experiment: Test Example 5: herbicidal effect by foliage application, plastic box (Table 20, symbol O); assay type: in vivo, lambsquarters (Chenopodium album); details: foliage application, 320 g/ha, three weeks after application
Method in brief: as §1

[14] = system: southern crabgrass; experiment: Test Example 4: herbicidal effect by soil treatment (Table 19, symbol F); assay type: in vivo, southern crabgrass (Digitaria ciliaris); details: amount of applied herbicide 320 g/ha
Method in brief: as §3

[15] = system: Italian ryegrass; experiment: Test Example 5: herbicidal effect by foliage application, plastic box (Table 20, symbol K); assay type: in vivo, Italian ryegrass (Lolium multiflorum); details: foliage application, 320 g/ha, three weeks after application
Method in brief: as §1

[16] = system: velvetleaf; experiment: Test Example 4: herbicidal effect by soil treatment (Table 19, symbol M); assay type: in vivo, velvetleaf (Abutilon theophrasti); details: amount of applied herbicide 320 g/ha
Method in brief: as §3

[17] = system: false cleavers; experiment: Test Example 5: herbicidal effect by foliage application, plastic box (Table 20, symbol Q); assay type: in vivo, false cleavers (Galium spurium); details: foliage application, 320 g/ha, three weeks after application
Method in brief: as §1

[18] = system: barnyard grass; experiment: Test Example 3: herbicidal effect by foliage application, Wagner pot (Table 18, symbol H); assay type: in vivo, barnyard grass (Echinochloa crus-galli); details: 320 g/ha
Method in brief: as §2

[19] = system: redroot pigweed; experiment: Test Example 5: herbicidal effect by foliage application, plastic box (Table 20, symbol N); assay type: in vivo, redroot pigweed (Amaranthus retroflexus); details: foliage application, 320 g/ha, three weeks after application
Method in brief: as §1

[20] = system: wild oat; experiment: Test Example 5: herbicidal effect by foliage application, plastic box (Table 20, symbol I); assay type: in vivo, wild oat (Avena fatua); details: foliage application, 320 g/ha, three weeks after application
Method in brief: as §1

[21] = system: green foxtail; experiment: Test Example 5: herbicidal effect by foliage application, plastic box (Table 20, symbol G); assay type: in vivo, green foxtail (Setaria viridis); details: foliage application, 320 g/ha, three weeks after application
Method in brief: as §1

[22] = system: blackgrass; experiment: Test Example 5: herbicidal effect by foliage application, plastic box (Table 20, symbol J); assay type: in vivo, blackgrass (Alopecurus myosuroides); details: foliage application, 320 g/ha, three weeks after application
Method in brief: as §1

[23] = system: Italian ryegrass; experiment: Test Example 4: herbicidal effect by soil treatment (Table 19, symbol K); assay type: in vivo, Italian ryegrass (Lolium multiflorum); details: amount of applied herbicide 320 g/ha
Method in brief: as §3

[24] = system: persian speedwell; experiment: Test Example 4: herbicidal effect by soil treatment (Table 19, symbol R); assay type: in vivo, Persian speedwell (Veronica persica); details: amount of applied herbicide 320 g/ha
Method in brief: as §3

[25] = system: lambsquarters; experiment: Test Example 4: herbicidal effect by soil treatment (Table 19, symbol O); assay type: in vivo, lambsquarters (Chenopodium album); details: amount of applied herbicide 320 g/ha
Method in brief: as §3

[26] = system: windgrass; experiment: Test Example 4: herbicidal effect by soil treatment (Table 19, symbol L); assay type: in vivo, windgrass (Apera spica-venti); details: amount of applied herbicide 320 g/ha
Method in brief: as §3

[27] = system: blackgrass; experiment: Test Example 4: herbicidal effect by soil treatment (Table 19, symbol J); assay type: in vivo, blackgrass (Alopecurus myosuroides); details: amount of applied herbicide 320 g/ha
Method in brief: as §3

[28] = system: velvetleaf; experiment: Test Example 5: herbicidal effect by foliage application, plastic box (Table 20, symbol M); assay type: in vivo, velvetleaf (Abutilon theophrasti); details: foliage application, 320 g/ha, three weeks after application
Method in brief: as §1

[29] = system: green foxtail; experiment: Test Example 4: herbicidal effect by soil treatment (Table 19, symbol G); assay type: in vivo, green foxtail (Setaria viridis); details: amount of applied herbicide 320 g/ha
Method in brief: as §3

SMILES | herbicidal effect grade, H: barnyard grass [1] | herbicidal effect on D (Chinese sprangletop), rating 0-5 [2] | herbicidal effect grade, R: persian speedwell [3] | herbicidal effect rating, P: chickweed [4] | herbicidal effect rating, Q: false cleavers [5] | herbicidal effect on E (rice flat sedge), rating 0-5 [6] | herbicidal effect grade, L: windgrass [7] | herbicidal effect grade, F: southern crabgrass [8] | herbicidal effect rating, I: wild oat [9] | herbicidal effect rating, H: barnyard grass [10] | herbicidal effect rating, N: redroot pigweed [11] | herbicidal effect grade, P: chickweed [12] | herbicidal effect grade, O: lambsquarters [13] | herbicidal effect rating, F: southern crabgrass [14] | herbicidal effect grade, K: Italian ryegrass [15] | herbicidal effect rating, M: velvetleaf [16] | herbicidal effect grade, Q: false cleavers [17] | herbicidal effect on H (barnyard grass), rating 0-5 [18] | herbicidal effect grade, N: redroot pigweed [19] | herbicidal effect grade, I: wild oat [20] | further results
COc1cccc(-c2sc3ccccc3c2-c2c(O)c(C)nn(C)c2=O)c1F [1-048] | 0 (Herbicidal rate of 5% or less (almost no effect)) | 5 (Herbicidal rate of 90% or more (almost completely withered)) | 4 (Herbicidal rate of 70% or more and less than 90%) | 3 (Herbicidal rate of 40% or more and less than 70%) | 0 (Herbicidal rate of 5% or less (almost no effect)) | 4 (Herbicidal rate of 70% or more and less than 90%) | 0 (Herbicidal rate of 5% or less (almost no effect)) | 0 (Herbicidal rate of 5% or less (almost no effect)) | 0 (Herbicidal rate of 5% or less (almost no effect)) | 0 (Herbicidal rate of 5% or less (almost no effect)) | 0 (Herbicidal rate of 5% or less (almost no effect)) | 5 (Herbicidal rate of 90% or more (almost completely withered)) | 0 (Herbicidal rate of 5% or less (almost no effect)) | 0 (Herbicidal rate of 5% or less (almost no effect)) | 0 (Herbicidal rate of 5% or less (almost no effect)) | 0 (Herbicidal rate of 5% or less (almost no effect)) | 0 (Herbicidal rate of 5% or less (almost no effect)) | 4 (Herbicidal rate of 70% or more and less than 90%) | 0 (Herbicidal rate of 5% or less (almost no effect)) | 0 (Herbicidal rate of 5% or less (almost no effect)) | herbicidal effect grade, G: green foxtail [21]: 0 (Herbicidal rate of 5% or less (almost no effect)); herbicidal effect grade, J: blackgrass [22]: 0 (Herbicidal rate of 5% or less (almost no effect)); herbicidal effect rating, K: Italian ryegrass [23]: 0 (Herbicidal rate of 5% or less (almost no effect)); herbicidal effect rating, R: persian speedwell [24]: 1 (Herbicidal rate of 5% or more and less than 20%); herbicidal effect rating, O: lambsquarters [25]: 0 (Herbicidal rate of 5% or less (almost no effect)); herbicidal effect rating, L: windgrass [26]: 0 (Herbicidal rate of 5% or less (almost no effect)); herbicidal effect rating, J: blackgrass [27]: 0 (Herbicidal rate of 5% or less (almost no effect)); herbicidal effect grade, M: velvetleaf [28]: 0 (Herbicidal rate of 5% or less (almost no effect)); herbicidal effect rating, G: green foxtail [29]: 0 (Herbicidal rate of 5% or less (almost no effect))
COc1cc(Cl)ccc1-c1sc2ccccc2c1-c1c(O)c(C)nn(C)c1=O [1-060] | 3 (Herbicidal rate of 40% or more and less than 70%) | 3 (Herbicidal rate of 40% or more and less than 70%) | 5 (Herbicidal rate of 90% or more (almost completely withered)) | 4 (Herbicidal rate of 70% or more and less than 90%) | 3 (Herbicidal rate of 40% or more and less than 70%) | 4 (Herbicidal rate of 70% or more and less than 90%) | 5 (Herbicidal rate of 90% or more (almost completely withered)) | 3 (Herbicidal rate of 40% or more and less than 70%) | 0 (Herbicidal rate of 5% or less (almost no effect)) | 0 (Herbicidal rate of 5% or less (almost no effect)) | 0 (Herbicidal rate of 5% or less (almost no effect)) | 5 (Herbicidal rate of 90% or more (almost completely withered)) | 5 (Herbicidal rate of 90% or more (almost completely withered)) | 0 (Herbicidal rate of 5% or less (almost no effect)) | 3 (Herbicidal rate of 40% or more and less than 70%) | 0 (Herbicidal rate of 5% or less (almost no effect)) | 5 (Herbicidal rate of 90% or more (almost completely withered)) | 4 (Herbicidal rate of 70% or more and less than 90%) | 3 (Herbicidal rate of 40% or more and less than 70%) | 3 (Herbicidal rate of 40% or more and less than 70%) | herbicidal effect grade, G: green foxtail [21]: 3 (Herbicidal rate of 40% or more and less than 70%); herbicidal effect grade, J: blackgrass [22]: 3 (Herbicidal rate of 40% or more and less than 70%); herbicidal effect rating, K: Italian ryegrass [23]: 0 (Herbicidal rate of 5% or less (almost no effect)); herbicidal effect rating, R: persian speedwell [24]: 5 (Herbicidal rate of 90% or more (almost completely withered)); herbicidal effect rating, O: lambsquarters [25]: 0 (Herbicidal rate of 5% or less (almost no effect)); herbicidal effect rating, L: windgrass [26]: 1 (Herbicidal rate of 5% or more and less than 20%); herbicidal effect rating, J: blackgrass [27]: 0 (Herbicidal rate of 5% or less (almost no effect)); herbicidal effect grade, M: velvetleaf [28]: 3 (Herbicidal rate of 40% or more and less than 70%); herbicidal effect rating, G: green foxtail [29]: 0 (Herbicidal rate of 5% or less (almost no effect))
